From patent US20100190846A1, “MICROBICIDAL AGENT AND MICROBICIDAL COMPOSITION” (priority 2006, published 2010)

Tests used:
Test in all cases: Agar dilution method microbicidal test
Format in all cases: cell-based
Candida sp. = test system: Candida sp. For Growth on agar plate: key: +: grew; −: did not grow.
Procedure: (§1) As microbicidal test method for trans-p-coumaric acid, 3-hydroxypyridine, p-hydroxybenzaldehyde and vanillin, the agar dilution method was employed.
(§2) In agar dilution method, a solution in which a sample is dissolved is serially diluted several times, and each of the diluted sample solutions is mixed with agar medium to prepare plate agars having various sample concentration. Then bacteria is inoculated onto the plate agars. In cases where the sample has a microbicidal activity, the growth of the bacteria on the plates can be inhibited. The lowest concentration which can inhibit the growth of the bacteria is referred to as Minimum Inhibitory Concentration (MIC), thereby judging the degree of a microbicidal activity of the sample.
(§3) First, 400 mg of sample was dissolved in 1 mL of DMSO to prepare 400 mg/mL sample solution. Then 0.5 mL of this 400 mg/mL sample solution was diluted 2-fold to prepare 200 mg/mL sample solution. In the same manner, sample solutions of 100 mg/mL, 50.0 mg/mL, and 25.0 mg/mL were prepared. In addition, 300 mg/mL sample solution was prepared. Thereafter, 0.2 mL of these sample solutions each was mixed with 19.8 mL of BHI (Brain Heart Infusion Agar, Becton Dickinson, MD) medium, thereby preparing agar plates having the sample concentration of 4.0 mg/mL, 3.0 mg/mL, 2.0 mg/mL, 1.0 mg/mL, 0.5 mg/mL, and 0.25 mg/mL in dishes. […] Sterilized water was used for dissolving catechin, because catechin was insoluble in DMSO.
(§4) As test bacteria, 13 kinds of bacteria, i.e., Streptococcus pneumoniae, Streptococcus pyogenes, Enterococcus faecalis, Staphylococcus aureus, Escherichia coli, Salmonella sp., Yersinia enterocolitica, Vibrio parahaemolyticus, Pseudomonas aeruginosa, Bacillus cereus, Bacillus subtilis MB-32, Bacillus subtilis ATCC6633, and Candida sp., were used. These bacteria each was mixed with 2 mL of sterilized MHB^R liquid medium (Mueller Hinton Broth^R, Becton Dickinson, MD) to prepare bacterial suspension having turbidity 1 (bacterial concentration 10^8/mL). Previously, small test tubes were set into each cell of a grating and sterilized, and 1 mL of 13 bacterial suspensions were added into the small test tubes set in the grating, respectively. By using a microplanter (SAKUMA, model: MIT-P), 10 μL aliquot was collected from each test tube set in the grating and transferred to other test tube, and the transferred bacterial suspensions were diluted 100-fold (bacterial concentration 10^6/mL).
(§5) By using the microplanter, 10 μL (bacterial number […]) of this bacterial suspension was inoculated onto the plates containing the sample solution of various concentrations. The plates were incubated for 18 hours in an incubator at 37° C., and then a microbicidal activity of each compound was assessed.

Bacillus cereus = test system: Bacillus cereus; for Growth on agar plate: key: +: grew; −: did not grow
Procedure: as §1, §2, §3, §4, §5

Enterococcus faecalis = test system: Enterococcus faecalis; note: key: +: grew; −: did not grow
Procedure: as §1, §2, §3, §4, §5

Salmonella sp. = test system: Salmonella sp. For Growth on agar plate: key: +: grew; −: did not grow.
Procedure: as §1, §2, §3, §4, §5

Streptococcus pyogenes = test system: Streptococcus pyogenes; for Growth on agar plate: key: +: grew; −: did not grow
Procedure: as §1, §2, §3, §4, §5

Staphylococcus aureus = test system: Staphylococcus aureus; for Growth on agar plate: key: +: grew; −: did not grow
Procedure: as §1, §2, §3, §4, §5

Streptococcus pneumoniae = test system: Streptococcus pneumoniae; for Growth on agar plate: key: +: grew; −: did not grow
Procedure: as §1, §2, §3, §4, §5

Vibrio parahaemolyticus = test system: Vibrio parahaemolyticus; for Growth on agar plate: key: +: grew; −: did not grow
Procedure: as §1, §2, §3, §4, §5

Pseudomonas aeruginosa = test system: Pseudomonas aeruginosa; for Growth on agar plate: key: +: grew; −: did not grow
Procedure: as §1, §2, §3, §4, §5

Bacillus subtilis MB-32 = test system: Bacillus subtilis MB-32; for Growth on agar plate: key: +: grew; −: did not grow
Procedure: as §1, §2, §3, §4, §5

[1] = test system: Bacillus subtilis ATCC6633; for Growth on agar plate: key: +: grew; −: did not grow
Procedure: as §1, §2, §3, §4, §5

Escherichia coli = test system: Escherichia coli; for Growth on agar plate: key: +: grew; −: did not grow
Procedure: as §1, §2, §3, §4, §5

Yersinia enterocolitica = test system: Yersinia enterocolitica; for Growth on agar plate: key: +: grew; −: did not grow
Procedure: as §1, §2, §3, §4, §5

[2] = BHI agar, 37° C., 18 hours, read-out: MIC

O=Cc1ccc(O)cc1 [p-Hydroxybenzaldehyde, p-hydroxybenzaldehyde]
2000 µg/mL: MIC (Salmonella sp.; [2]) | MIC (Streptococcus pyogenes; [2]) | MIC (Streptococcus pneumoniae; [2]) | MIC (Vibrio parahaemolyticus; [2]) | MIC (Pseudomonas aeruginosa; [2]) | MIC (Escherichia coli; [2])
500 µg/mL: MIC (Yersinia enterocolitica; [2])
had an activity: activity (in words) (Candida sp.) | activity (in words) (Bacillus cereus) | activity (in words) (Salmonella sp.) | activity (in words) (Streptococcus pyogenes) | activity (in words) (Staphylococcus aureus) | activity (in words) (Streptococcus pneumoniae) | activity (in words) (Vibrio parahaemolyticus) | activity (in words) (Pseudomonas aeruginosa) | activity (in words) (Bacillus subtilis MB-32) | activity (in words) ([1]; Bacillus subtilis ATCC6633) | activity (in words) (Escherichia coli)
3000 µg/mL: MIC (Candida sp.; [2]) | MIC (Bacillus cereus; [2]) | MIC (Staphylococcus aureus; [2]) | MIC (Bacillus subtilis MB-32; MB32, BHI agar, 37° C., 18 hours, read-out: MIC) | MIC ([1]; ATCC6633, Bacillus subtilis ATCC 6633, BHI agar, 37° C., 18 hours, read-out: MIC)
+: Growth on agar plate (Candida sp.; 0.25 mg/mL) | Growth on agar plate (Candida sp.; 0.5 mg/mL) | Growth on agar plate (Candida sp.; 1.0 mg/mL) | Growth on agar plate (Candida sp.; 2.0 mg/mL) | Growth on agar plate (Bacillus cereus; 0.25 mg/mL) | Growth on agar plate (Bacillus cereus; 0.5 mg/mL) | Growth on agar plate (Bacillus cereus; 1.0 mg/mL) | Growth on agar plate (Bacillus cereus; 2.0 mg/mL) | Growth on agar plate (Enterococcus faecalis; 0.25 mg/mL) | Growth on agar plate (Enterococcus faecalis; 0.5 mg/mL) | Growth on agar plate (Enterococcus faecalis; 1.0 mg/mL) | Growth on agar plate (Enterococcus faecalis; 2.0 mg/mL) | Growth on agar plate (Enterococcus faecalis; 3.0 mg/mL) | Growth on agar plate (Enterococcus faecalis; 4.0 mg/mL) | Growth on agar plate (Salmonella sp.; 0.25 mg/mL) | Growth on agar plate (Salmonella sp.; 0.5 mg/mL) | Growth on agar plate (Salmonella sp.; 1.0 mg/mL) | Growth on agar plate (Streptococcus pyogenes; 0.25 mg/mL) | Growth on agar plate (Streptococcus pyogenes; 0.5 mg/mL) | Growth on agar plate (Streptococcus pyogenes; 1.0 mg/mL) | Growth on agar plate (Staphylococcus aureus; 0.25 mg/mL) | Growth on agar plate (Staphylococcus aureus; 0.5 mg/mL) | Growth on agar plate (Staphylococcus aureus; 1.0 mg/mL) | Growth on agar plate (Staphylococcus aureus; 2.0 mg/mL) | Growth on agar plate (Streptococcus pneumoniae; 0.25 mg/mL) | Growth on agar plate (Streptococcus pneumoniae; 0.5 mg/mL) | Growth on agar plate (Streptococcus pneumoniae; 1.0 mg/mL) | Growth on agar plate (Vibrio parahaemolyticus; 0.25 mg/mL) | Growth on agar plate (Vibrio parahaemolyticus; 0.5 mg/mL) | Growth on agar plate (Vibrio parahaemolyticus; 1.0 mg/mL) | Growth on agar plate (Pseudomonas aeruginosa; 0.25 mg/mL) | Growth on agar plate (Pseudomonas aeruginosa; 0.5 mg/mL) | Growth on agar plate (Pseudomonas aeruginosa; 1.0 mg/mL) | Growth on agar plate (Bacillus subtilis MB-32; 0.25 mg/mL) | Growth on agar plate (Bacillus subtilis MB-32; 0.5 mg/mL) | Growth on agar plate (Bacillus subtilis MB-32; 1.0 mg/mL) | Growth on agar plate (Bacillus subtilis MB-32; 2.0 mg/mL) | Growth on agar plate (Bacillus subtilis MB-32; 3.0 mg/mL) | Growth on agar plate ([1]; Bacillus subtilis ATCC 6633, 0.25 mg/mL) | Growth on agar plate ([1]; Bacillus subtilis ATCC 6633, 0.5 mg/mL) | Growth on agar plate ([1]; Bacillus subtilis ATCC 6633, 1.0 mg/mL) | Growth on agar plate ([1]; Bacillus subtilis ATCC 6633, 2.0 mg/mL) | Growth on agar plate (Escherichia coli; 0.25 mg/mL) | Growth on agar plate (Escherichia coli; 0.5 mg/mL) | Growth on agar plate (Escherichia coli; 1.0 mg/mL) | Growth on agar plate (Yersinia enterocolitica; 0.25 mg/mL)
strong microbicidal activity: activity (in words) (Yersinia enterocolitica)
−: Growth on agar plate (Candida sp.; 3.0 mg/mL) | Growth on agar plate (Candida sp.; 4.0 mg/mL) | Growth on agar plate (Bacillus cereus; 3.0 mg/mL) | Growth on agar plate (Bacillus cereus; 4.0 mg/mL) | Growth on agar plate (Salmonella sp.; 2.0 mg/mL) | Growth on agar plate (Salmonella sp.; 3.0 mg/mL) | Growth on agar plate (Salmonella sp.; 4.0 mg/mL) | Growth on agar plate (Streptococcus pyogenes; 2.0 mg/mL) | Growth on agar plate (Streptococcus pyogenes; 3.0 mg/mL) | Growth on agar plate (Streptococcus pyogenes; 4.0 mg/mL) | Growth on agar plate (Staphylococcus aureus; 3.0 mg/mL) | Growth on agar plate (Staphylococcus aureus; 4.0 mg/mL) | Growth on agar plate (Streptococcus pneumoniae; 2.0 mg/mL) | Growth on agar plate (Streptococcus pneumoniae; 3.0 mg/mL) | Growth on agar plate (Streptococcus pneumoniae; 4.0 mg/mL) | Growth on agar plate (Vibrio parahaemolyticus; 2.0 mg/mL) | Growth on agar plate (Vibrio parahaemolyticus; 3.0 mg/mL) | Growth on agar plate (Vibrio parahaemolyticus; 4.0 mg/mL) | Growth on agar plate (Pseudomonas aeruginosa; 2.0 mg/mL) | Growth on agar plate (Pseudomonas aeruginosa; 3.0 mg/mL) | Growth on agar plate (Pseudomonas aeruginosa; 4.0 mg/mL) | Growth on agar plate (Bacillus subtilis MB-32; 4.0 mg/mL) | Growth on agar plate ([1]; Bacillus subtilis ATCC 6633, 3.0 mg/mL) | Growth on agar plate ([1]; Bacillus subtilis ATCC 6633, 4.0 mg/mL) | Growth on agar plate (Escherichia coli; 2.0 mg/mL) | Growth on agar plate (Escherichia coli; 3.0 mg/mL) | Growth on agar plate (Escherichia coli; 4.0 mg/mL) | Growth on agar plate (Yersinia enterocolitica; 0.5 mg/mL) | Growth on agar plate (Yersinia enterocolitica; 1.0 mg/mL) | Growth on agar plate (Yersinia enterocolitica; 2.0 mg/mL) | Growth on agar plate (Yersinia enterocolitica; 3.0 mg/mL) | Growth on agar plate (Yersinia enterocolitica; 4.0 mg/mL)
